According to patent US20160009693A1, “HERBICIDAL COMPOUNDS” (SYNGENTA LIMITED, priority 2013, published 2016):

Columns and labels:
Type in all cases: in vivo
Conditions in all cases: applied at 1000 g/h, evaluated after 13 days
[1] = system: Setaria faberi (SETFA); test: Herbicidal glasshouse test, pre-emergence, SETFA
Protocol: (§1) Seeds of a variety of test species are sown in standard soil in pots (Alopecurus myosuroides (ALOMY), Setaria faberi (SETFA), Echinochloa crus-galli (ECHCG), Solanum nigrum (SOLNI), Amaranthus retoflexus (AMARE), Ipomoea hederacea (IPOHE)). After cultivation for one day (pre-emergence) or after 8 days cultivation (post-emergence) under controlled conditions in a glasshouse (at 24/16° C., day/night; 14 hours light; 65% humidity), the plants are sprayed with an aqueous spray solution derived from the formulation of the technical active ingredient in acetone / water (50:50) solution containing 0.5% Tween 20 (polyoxyethelyene sorbitan monolaurate, CAS RN 9005-64-5). […] The test plants are then grown in a glasshouse under controlled conditions in a glasshouse (at 24/16° C., day/night; 14 hours light; 65% humidity) and watered twice daily. After 13 days for pre and post-emergence, the test is evaluated for the percentage damage caused to the plant. The biological activities are shown in the following table on a five point scale (5=80-100%; 4=60-79%; 3=40-59%; 2=20-39%; 1=0-19%).

[2] = system: Ipomoea hederacea (IPOHE); test: Herbicidal glasshouse test, post-emergence, IPOHE
Protocol: as §1

[3] = system: Echinochloa crus-galli (ECHCG); test: Herbicidal glasshouse test, pre-emergence, ECHCG
Protocol: as §1

[4] = system: Ipomoea hederacea (IPOHE); test: Herbicidal glasshouse test, pre-emergence, IPOHE
Protocol: as §1

[5] = system: Amaranthus retoflexus (AMARE); test: Herbicidal glasshouse test, pre-emergence, AMARE
Protocol: as §1

[6] = system: Solanum nigrum (SOLNI); test: Herbicidal glasshouse test, post-emergence, SOLNI
Protocol: as §1

[7] = system: Echinochloa crus-galli (ECHCG); test: Herbicidal glasshouse test, post-emergence, ECHCG
Protocol: as §1

[8] = system: Amaranthus retoflexus (AMARE); test: Herbicidal glasshouse test, post-emergence, AMARE
Protocol: as §1

[9] = system: Solanum nigrum (SOLNI); test: Herbicidal glasshouse test, pre-emergence, SOLNI
Protocol: as §1

[10] = system: Alopecurus myosuroides (ALOMY); test: Herbicidal glasshouse test, pre-emergence, ALOMY
Protocol: as §1

[11] = system: Setaria faberi (SETFA); test: Herbicidal glasshouse test, post-emergence, SETFA
Protocol: as §1

[12] = system: Alopecurus myosuroides (ALOMY); test: Herbicidal glasshouse test, post-emergence, ALOMY
Protocol: as §1

| Compound | PRE Application SETFA, percentage damage (five point scale) [1] | POST Application IPOHE, percentage damage (five point scale) [2] | PRE Application ECHCG, percentage damage (five point scale) [3] | PRE Application IPOHE, percentage damage (five point scale) [4] | PRE Application AMARE, percentage damage (five point scale) [5] | POST Application SOLNI, percentage damage (five point scale) [6] | POST Application ECHCG, percentage damage (five point scale) [7] | POST Application AMARE, percentage damage (five point scale) [8] | PRE Application SOLNI, percentage damage (five point scale) [9] | PRE Application ALOMY, percentage damage (five point scale) [10] | POST Application SETFA, percentage damage (five point scale) [11] | POST Application ALOMY, percentage damage (five point scale) [12] |
| --- | --- | --- | --- | --- | --- | --- | --- | --- | --- | --- | --- | --- |
| CCCCn1c(=O)c(C(=O)Nc2nnnn2C)nn(C)c1=O [Compound 1.001] | 5 (5=80-100%) | 5 (5=80-100%) | 5 (5=80-100%) | 5 (5=80-100%) | 5 (5=80-100%) | 5 (5=80-100%) | 5 (5=80-100%) | 5 (5=80-100%) | 5 (5=80-100%) | 5 (5=80-100%) | 5 (5=80-100%) | 5 (5=80-100%) |
| Cn1nnnc1NC(=O)c1nn(C)c(=O)n(-c2ccccc2)c1=O [Compound 1.002] | 5 (5=80-100%) | 5 (5=80-100%) | 5 (5=80-100%) | 5 (5=80-100%) | 5 (5=80-100%) | 5 (5=80-100%) | 5 (5=80-100%) | 5 (5=80-100%) | 5 (5=80-100%) | 5 (5=80-100%) | 5 (5=80-100%) | 5 (5=80-100%) |
| Cn1nnnc1NC(=O)c1nn(C)c(=O)n(-c2cccc(F)c2F)c1=O [Compound 1.003] | 5 (5=80-100%) | 5 (5=80-100%) | 5 (5=80-100%) | 5 (5=80-100%) | 5 (5=80-100%) | 5 (5=80-100%) | 5 (5=80-100%) | 5 (5=80-100%) | 5 (5=80-100%) | 5 (5=80-100%) | 5 (5=80-100%) | 5 (5=80-100%) |
| C=CCn1c(=O)c(C(=O)Nc2nnnn2C)nn(C)c1=O [Compound 1.004] | 2 (2=20-39%) | 5 (5=80-100%) | 4 (4=60-79%) | 4 (4=60-79%) | 5 (5=80-100%) | 5 (5=80-100%) | 4 (4=60-79%) | 5 (5=80-100%) | 5 (5=80-100%) | 3 (3=40-59%) | 4 (4=60-79%) | 4 (4=60-79%) |
| CC(C)Cn1c(=O)c(C(=O)Nc2nnnn2C)nn(C)c1=O [Compound 1.005] | 5 (5=80-100%) | 5 (5=80-100%) | 5 (5=80-100%) | 4 (4=60-79%) | 5 (5=80-100%) | 5 (5=80-100%) | 5 (5=80-100%) | 5 (5=80-100%) | 5 (5=80-100%) | 5 (5=80-100%) | 5 (5=80-100%) | 5 (5=80-100%) |
| CCc1ccc(-n2c(=O)c(C(=O)Nc3nnnn3C)nn(C)c2=O)cc1 [Compound 1.006] | 5 (5=80-100%) | 5 (5=80-100%) | 5 (5=80-100%) | 5 (5=80-100%) | 5 (5=80-100%) | 5 (5=80-100%) | 5 (5=80-100%) | 5 (5=80-100%) | 5 (5=80-100%) | 5 (5=80-100%) | 5 (5=80-100%) | 5 (5=80-100%) |
| C=CCn1nc(C(=O)Nc2nnnn2C)c(=O)n(-c2cccc(F)c2)c1=O [Compound 1.007] | 1 (1=0-19%) | 5 (5=80-100%) | 5 (5=80-100%) | 5 (5=80-100%) | 5 (5=80-100%) | 5 (5=80-100%) | 5 (5=80-100%) | 5 (5=80-100%) | 5 (5=80-100%) | 2 (2=20-39%) | 5 (5=80-100%) | 5 (5=80-100%) |
| Cn1nnnc1NC(=O)c1nn(C)c(=O)n(-c2ccc(F)c(Cl)c2)c1=O [Compound 1.008] | 5 (5=80-100%) | 5 (5=80-100%) | 5 (5=80-100%) | 5 (5=80-100%) | 5 (5=80-100%) | 5 (5=80-100%) | 5 (5=80-100%) | 5 (5=80-100%) | 5 (5=80-100%) | 5 (5=80-100%) | 5 (5=80-100%) | 5 (5=80-100%) |
| CSc1ccc(-n2c(=O)c(C(=O)Nc3nnnn3C)nn(C)c2=O)cc1 [Compound 1.009] | 1 (1=0-19%) | 5 (5=80-100%) | 2 (2=20-39%) | 4 (4=60-79%) | 5 (5=80-100%) | 5 (5=80-100%) | 5 (5=80-100%) | 5 (5=80-100%) | 5 (5=80-100%) | 2 (2=20-39%) | 5 (5=80-100%) | 5 (5=80-100%) |
| CC(Cl)c1ccc(-n2c(=O)c(C(=O)Nc3nnnn3C)nn(C)c2=O)cc1 (stereo not drawn) [Compound 1.010] | 5 (5=80-100%) | 5 (5=80-100%) | 5 (5=80-100%) | 5 (5=80-100%) | 4 (4=60-79%) | 5 (5=80-100%) | 5 (5=80-100%) | 5 (5=80-100%) | 5 (5=80-100%) | 5 (5=80-100%) | 5 (5=80-100%) | 5 (5=80-100%) |
